# From patent US12662469B2 (SIRONAX LTD, priority 2018, dated 2026)
# Read-outs that look alike come from different tables or passages of the source.
# Test system: Cell Necrosis
# Test: Cell necrosis assay / cell viability assay (necrosis inhibitor activity)
# Assay type: cell-based
# Conditions: necrosis inhibitor activity, read-out: EC50
# [1] = EC data for 14-191 extrapolated
Structure (SMILES),EC50 (compounds outside 14-191) [nM],EC50 [1] [nM]
"N#Cc1cccc(C2CC=NN2C(=O)N2CC(Oc3cc4[nH]nc(F)c4cc3F)C2)c1 (centres unmarked) [Compound 380, 3-(1-(3-((3,5-difluoro-1H-indazol-6-yl)oxy)azetidine-1-carbonyl)-4,5-dihydro-1H-pyrazol-5-yl)benzonitrile]",1 to 1000,
CNC(=O)c1cccc(OC2CN(C(=O)N3N=CCC3c3cc(F)cc(F)c3)C2)c1 (centres unmarked) [Compound 163],,1 to 1000
O=C(N1CC(Oc2ccc3cn[nH]c3c2)C1)N1N=CCC1c1cc(F)cc(F)c1 (centres unmarked) [Compound 182],,1 to 1000
O=C(N1CC(=Cc2cnc3c(F)n[nH]c3c2)C1)N1N=CC[C@H]1c1cc(F)cc(F)c1 [Compound 327],1 to 1000,
"O=C(N1CCN(c2cnccn2)CC1)N1N=CCC1c1ccccc1 (centres unmarked) [Compound 86, (5-phenyl-4,5-dihydro-1H-pyrazol-1-yl)(4-(pyrazin-2-yl)piperazin-1-yl)methanone]",,1 to 1000
"O=C(N1CC(Oc2cnccn2)C1)N1N=CCC1c1ccccc1 (centres unmarked) [Compound 119, (5-phenyl-4,5-dihydro-1H-pyrazol-1-yl)(3-(pyrazin-2-yloxy)azetidin-1-yl)methanone]",,1 to 1000
"O=C(N1CC(Oc2ccc(F)cn2)C1)N1N=CCC1c1cc(F)cc(F)c1 (centres unmarked) [Compound 212, (5-(3,5-difluorophenyl)-4,5-dihydro-1H-pyrazol-1-yl)(3-((5-fluoropyridin-2-yl)oxy)azetidin-1-yl)methanone]",1 to 1000,
"NC(=O)c1cccc(OC2CN(C(=O)N3N=CCC3c3cc(F)cc(F)c3)C2)c1 (centres unmarked) [Compound 129, 3-((1-(5-(3,5-difluorophenyl)-4,5-dihydro-1H-pyrazole-1-carbonyl)azetidin-3-yl)oxy)benzamide]",,1 to 1000
"NC(=O)c1cc(F)c(OC2CN(C(=O)N3N=CC[C@H]3c3cc(F)cc(F)c3)C2)c(F)c1 [Compound 222, (S)-4-((1-(5-(3,5-difluorophenyl)-4,5-dihydro-1H-pyrazole-1-carbonyl)azetidin-3-yl)oxy)-3,5-difluorobenzamide]",1 to 1000,
O=C(c1nc(OC2CN(C(=O)N3N=CC[C@H]3c3cc(F)cc(F)c3)C2)sc1Cl)N1CCC1 [Compound 275],1 to 1000,
"CC1Oc2ccc(OC3CN(C(=O)N4N=CC[C@H]4c4cc(F)cc(C#N)c4)C3)cc2NC1=O (stereo partly drawn) [Compound 354, 3-fluoro-5-((5S)-1-(3-((2-methyl-3-oxo-3,4-dihydro-2H-benzo[b][1,4]oxazin-6-yl)oxy)azetidine-1-carbonyl)-4,5-dihydro-1H-pyrazol-5-yl)benzonitrile]",1 to 1000,
"CC(C)CC(=O)Nc1nc(N2CCN(C(=O)N3N=CC[C@H]3c3cc(F)cc(F)c3)CC2)ncc1F [Compound 291, (S)—N-(2-(4-(5-(3,5-difluorophenyl)-4,5-dihydro-1H-pyrazole-1-carbonyl)piperazin-1-yl)-5-fluoropyrimidin-4-yl)-3-methylbutanamide]",1 to 1000,
O=C(N1CC[C@@H](Oc2cccc(NCCN3CCOCC3)n2)C1)N1N=CC[C@H]1c1cc(F)cc(F)c1 [Compound 358],1 to 1000,
NC(=O)c1cc(OC2CN(C(=O)N3N=CC[C@H]3c3cc(F)cc(F)c3)C2)ccc1F [Compound 220],1 to 1000,
"O=C(N1CC(Oc2cc3[nH]nc(F)c3cc2F)C1)N1N=CC[C@H]1c1cc(F)cc(F)c1 [Compound 376, (S)-(3-((3,5-difluoro-1H-indazol-6-yl)oxy)azetidin-1-yl)(5-(3,5-difluorophenyl)-4,5-dihydro-1H-pyrazol-1-yl)methanone]",1 to 1000,
O=C(N1CC(Oc2ccc3cc[nH]c3c2)C1)N1N=CCC1c1cc(F)cc(F)c1 (centres unmarked) [Compound 177],,1 to 1000

Structure (SMILES),EC50 (compounds outside 14-191) [nM],EC50 [1] [nM]
"C[C@H]1CN(c2ncc(Cl)cn2)CCN1C(=O)N1N=CCC1c1ccccc1 (stereo partly drawn) [Compound 113A, ((S)-4-(5-chloropyrimidin-2-yl)-2-methylpiperazin-1-yl)(5-phenyl-4,5-dihydro-1H-pyrazol-1-yl)methanone]",,1 to 1000
O=C(N1CC(=Cc2ccc3cc[nH]c3c2)C1)N1N=CCC1c1cc(F)cc(F)c1 (centres unmarked) [Compound 184],,1 to 1000
"O=C(N1CC(Oc2ccc(F)cc2F)C1)N1N=CCC1c1ccccc1 (centres unmarked) [Compound 63, (3-(2,4-difluorophenoxy)azetidin-1-yl)(5-phenyl-4,5-dihydro-1H-pyrazol-1-yl)methanone]",,1 to 1000
"O=C(N1CC(Oc2ccccc2F)C1)N1N=CCC1c1ccccc1 (centres unmarked) [Compound 60, (3-(2-fluorophenoxy)azetidin-1-yl)(5-phenyl-4,5-dihydro-1H-pyrazol-1-yl)methanone]",,1 to 1000
O=C(N1CC(Oc2scc3c(=O)[nH]cnc23)C1)N1N=CCC1c1cc(F)cc(F)c1 (centres unmarked) [Compound 169],,1 to 1000
"CNc1nc(OC2CN(C(=O)N3N=CC[C@H]3c3cc(F)cc(F)c3)C2)c(F)cc1F [Compound 262, (S)-(3-((3,5-difluoro-6-(methylamino)pyridin-2-yl)oxy)azetidin-1-yl)(5-(3,5-difluorophenyl)-4,5-dihydro-1H-pyrazol-1-yl)methanone]",1 to 1000,
CNC(=O)c1nc(OC2CN(C(=O)N3N=CCC3c3cc(F)cc(F)c3)C2)sc1F (centres unmarked) [Compound 170],,1 to 1000
O=C1NCc2c1csc2OC1CN(C(=O)N2N=CCC2c2cc(F)cc(F)c2)C1 (centres unmarked) [Compound 168],,1 to 1000
"Cc1ccccc1C=C1CN(C(=O)N2N=CCC2c2ccccc2)C1 (centres unmarked) [Compound 38, (3-(2-methylbenzylidene)azetidin-1-yl)(5-phenyl-4,5-dihydro-1H-pyrazol-1-yl)methanone]",,1 to 1000
"O=C(N1CCN(c2ncc3cn[nH]c3n2)CC1)N1N=CC[C@H]1c1cc(F)cc(F)c1 [Compound 260, (S)-(4-(1H-pyrazolo[3,4-d]pyrimidin-6-yl)piperazin-1-yl)(5-(3,5-difluorophenyl)-4,5-dihydro-1H-pyrazol-1-yl)methanone]",1 to 1000,
"O=C(N1CC(Oc2ccc3ncc(=O)[nH]c3n2)C1)N1N=CC[C@H]1c1cc(F)cc(F)c1 [Compound 256, (S)-6-((1-(5-(3,5-difluorophenyl)-4,5-dihydro-1H-pyrazole-1-carbonyl)azetidin-3-yl)oxy)pyrido[2,3-b]pyrazin-3(4H)-one]",1 to 1000,
"O=C(N1CC(=Cc2ccc3cn[nH]c3c2)C1)N1N=CC[C@H]1c1cc(F)cc(F)c1 [Compound 310, (S)-(3-((1H-indazol-6-yl)methylene)azetidin-1-yl)(5-(3,5-difluorophenyl)-4,5-dihydro-1H-pyrazol-1-yl)methanone]",1 to 1000,
"O=C(N1CC[C@H](Oc2ccccc2)C1)N1N=CCC1c1ccccc1 (stereo partly drawn) [Compound 27A, ((S)-3-phenoxypyrrolidin-1-yl)(S-phenyl-4,5-dihydro-1H-pyrazol-1-yl)methanone]",,1000 to 10000
"N#Cc1cc(OC2CN(C(=O)N3N=CC[C@H]3c3cc(F)cc(F)c3)C2)ccc1F [Compound 236, (S)-5-((1-(5-(3,5-difluorophenyl)-4,5-dihydro-1H-pyrazole-1-carbonyl)azetidin-3-yl)oxy)-2-fluorobenzonitrile]",1 to 1000,
"N#Cc1csc(OC2CN(C(=O)N3N=CCC3c3ccccc3)C2)n1 (centres unmarked) [Compound 121, 2-((1-(5-phenyl-4,5-dihydro-1H-pyrazole-1-carbonyl)azetidin-3-yl)oxy)thiazole-4-carbonitrile]",,1 to 1000
"O=C(N1CC[C@@H](Oc2cccc(F)c2)C1)N1N=CCC1c1ccccc1 (stereo partly drawn) [Compound 32, ((R)-3-(3-fluorophenoxy)pyrrolidin-1-yl)(5-phenyl-4,5-dihydro-1H-pyrazol-1-yl)methanone]",,1 to 1000
